Laboratory results reported in publication PMC12250785, “Synthesis of Novel 7-Phenyl-2,3-Dihydropyrrolo[2,1-b]Quinazolin-9(1H)-ones as Cholinesterase Inhibitors Targeting Alzheimer’s Disease Through Suzuki–Miyaura Cross-Coupling Reaction” (Molecules, 2025).

Columns and labels:
AChE (E.C. 3.1.1.7) = AChE (E.C. 3.1.1.7) (Electrophorus electricus, UniProt O42275); test: biochemical; conditions: for IC50: AChE from electric eel, Ellman method, means ± SD of triplicate independent experiments; for Selectivity (BChE/AChE): BChE IC50/AChE IC50
Sequence of AChE (E.C. 3.1.1.7) (O42275 24-633): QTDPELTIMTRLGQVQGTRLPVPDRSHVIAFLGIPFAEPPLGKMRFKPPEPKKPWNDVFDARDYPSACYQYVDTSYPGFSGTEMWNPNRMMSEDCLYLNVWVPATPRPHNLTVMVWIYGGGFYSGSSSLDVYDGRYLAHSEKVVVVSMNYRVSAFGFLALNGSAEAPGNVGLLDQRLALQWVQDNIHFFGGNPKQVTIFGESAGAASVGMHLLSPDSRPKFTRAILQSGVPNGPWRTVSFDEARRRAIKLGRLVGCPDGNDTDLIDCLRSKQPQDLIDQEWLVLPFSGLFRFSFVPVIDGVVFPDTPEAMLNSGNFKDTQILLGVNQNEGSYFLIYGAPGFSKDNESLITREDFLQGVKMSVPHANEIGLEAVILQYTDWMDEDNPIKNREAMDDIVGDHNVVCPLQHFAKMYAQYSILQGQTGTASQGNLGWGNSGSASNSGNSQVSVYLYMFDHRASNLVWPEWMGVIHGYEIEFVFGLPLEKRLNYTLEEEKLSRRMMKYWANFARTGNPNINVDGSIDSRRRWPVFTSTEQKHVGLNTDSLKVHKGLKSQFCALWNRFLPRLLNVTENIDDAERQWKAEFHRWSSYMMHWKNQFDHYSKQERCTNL
Description: The results are presented as IC50 values.
The total volume of the reaction was 200 μL, consisting of 2 μL of sample, 138 μL of Tris-HCl buffer solution containing acetylcholinesterase (final concentration of 0.03 U/mL), and a control consisting of Tris-HCl buffer solution without the enzyme. The reaction was incubated at room temperature for 10 min. Following this, 20 μL of […] (5 mM) was added, and the reaction was conducted at 37 °C for an additional 10 min.

BChE (E.C. 3.1.1.8) = BChE (E.C. 3.1.1.8) (Equus caballus, UniProt P81908); test: biochemical; conditions: BChE from horse serum; Ellman method; means ± SD of triplicate independent experiments
Sequence of BChE (E.C. 3.1.1.8) (P81908 whole entry): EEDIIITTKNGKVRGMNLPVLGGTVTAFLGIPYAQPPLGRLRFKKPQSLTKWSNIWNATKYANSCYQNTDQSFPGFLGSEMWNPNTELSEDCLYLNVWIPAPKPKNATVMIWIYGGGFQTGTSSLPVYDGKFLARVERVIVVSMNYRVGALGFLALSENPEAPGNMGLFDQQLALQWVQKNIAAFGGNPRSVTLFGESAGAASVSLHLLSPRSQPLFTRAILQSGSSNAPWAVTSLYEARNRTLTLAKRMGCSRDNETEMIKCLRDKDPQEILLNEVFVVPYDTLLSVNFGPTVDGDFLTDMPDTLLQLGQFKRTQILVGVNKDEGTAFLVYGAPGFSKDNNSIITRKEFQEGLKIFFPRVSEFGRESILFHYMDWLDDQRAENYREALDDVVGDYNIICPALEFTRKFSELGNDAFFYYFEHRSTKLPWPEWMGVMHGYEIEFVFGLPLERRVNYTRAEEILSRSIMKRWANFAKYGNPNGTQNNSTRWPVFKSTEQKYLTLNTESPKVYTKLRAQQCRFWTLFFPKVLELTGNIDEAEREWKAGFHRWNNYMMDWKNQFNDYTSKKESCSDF

[1] = Solubility in common organic solvents; type: physicochemical

O=c1c2cc(-c3ccc(Cl)cc3)ccc2nc2n1CCCC2 [4a, 2-(4-Chlorophenyl)-6,7,8,9-tetrahydro-11H-pyrido[2,1-b]quinazolin-11-one]
IC50 (AChE (E.C. 3.1.1.7)): > 50 µM
IC50 (BChE (E.C. 3.1.1.8)): > 50 µM

O=c1c2cc(-c3ccc(Cl)cc3)ccc2nc2n1CCC2 [3a, 7-(4-Chlorophenyl)-2,3-dihydropyrrolo[2,1-b]quinazolin-9(1H)-one]
IC50 (AChE (E.C. 3.1.1.7)): > 50 µM
IC50 (BChE (E.C. 3.1.1.8)): > 50 µM

COc1ccc(Cl)cc1-c1ccc2nc3n(c(=O)c2c1)CCC3 [3l, 7-(5-Chloro-2-methoxyphenyl)-2,3-dihydropyrrolo[2,1-b]quinazolin-9(1H)-one]
IC50 (AChE (E.C. 3.1.1.7)): 14.7 ± 0.48 µM
Selectivity (BChE/AChE) (AChE (E.C. 3.1.1.7)): 2.0
IC50 (BChE (E.C. 3.1.1.8)): 28.5 ± 0.46 µM

O=c1c2cc(-c3cccc(Cl)c3)ccc2nc2n1CCC2 [3g, 7-(3-Chlorophenyl)-2,3-dihydropyrrolo[2,1-b]quinazolin-9(1H)-one]
IC50 (AChE (E.C. 3.1.1.7)): 27.9 ± 0.72 µM
Selectivity (BChE/AChE) (AChE (E.C. 3.1.1.7)): 0.8
IC50 (BChE (E.C. 3.1.1.8)): 22.2 ± 0.48 µM

O=c1c2cc(-c3ccc(F)c(Cl)c3)ccc2nc2n1CCC2 [3k, 7-(3-Chloro-4-fluorophenyl)-2,3-dihydropyrrolo[2,1-b]quinazolin-9(1H)-one]
IC50 (AChE (E.C. 3.1.1.7)): 6.08 ± 0.26 µM
Selectivity (BChE/AChE) (AChE (E.C. 3.1.1.7)): 4.8
IC50 (BChE (E.C. 3.1.1.8)): 29 ± 0.74 µM

O=c1c2cc(-c3ccc(F)cc3)ccc2nc2n1CCCC2 [4b, 2-(4-Fluorophenyl)-6,7,8,9-tetrahydro-11H-pyrido[2,1-b]quinazolin-11-one]
IC50 (AChE (E.C. 3.1.1.7)): 34.6 ± 1.27 µM
IC50 (BChE (E.C. 3.1.1.8)): > 50 µM

CC(C)(C)c1ccc(-c2ccc3nc4n(c(=O)c3c2)CCC4)cc1 [3e, 7-(4-(tert-Butyl)phenyl)-2,3-dihydropyrrolo[2,1-b]quinazolin-9(1H)-one]
IC50 (AChE (E.C. 3.1.1.7)): > 50 µM
IC50 (BChE (E.C. 3.1.1.8)): > 50 µM

COc1ccc(-c2ccc3nc4n(c(=O)c3c2)CCCC4)cc1 [4d, 2-(4-Methoxyphenyl)-6,7,8,9-tetrahydro-11H-pyrido[2,1-b]quinazolin-11-one]
IC50 (AChE (E.C. 3.1.1.7)): 33.2 ± 1.08 µM
IC50 (BChE (E.C. 3.1.1.8)): > 50 µM

O=c1c2cc(-c3ccccc3)ccc2nc2n1CCC2 [3n, 7-Phenyl-2,3-dihydropyrrolo[2,1-b]quinazolin-9(1H)-one]
IC50 (AChE (E.C. 3.1.1.7)): 35.9 ± 1.03 µM
Selectivity (BChE/AChE) (AChE (E.C. 3.1.1.7)): 0.64
IC50 (BChE (E.C. 3.1.1.8)): 22.9 ± 0.57 µM

CC(=O)c1cccc(-c2ccc3nc4n(c(=O)c3c2)CCCC4)c1 [4i, 2-(3-Acetylphenyl)-6,7,8,9-tetrahydro-11H-pyrido[2,1-b]quinazolin-11-one]
IC50 (AChE (E.C. 3.1.1.7)): 11.1 ± 0.73 µM
IC50 (BChE (E.C. 3.1.1.8)): > 50 µM

COc1cccc(-c2ccc3nc4n(c(=O)c3c2)CCC4)c1 [3h, 7-(3-Methoxyphenyl)-2,3-dihydropyrrolo[2,1-b]quinazolin-9(1H)-one]
IC50 (AChE (E.C. 3.1.1.7)): 17.7 ± 0.84 µM
Selectivity (BChE/AChE) (AChE (E.C. 3.1.1.7)): 2.4
IC50 (BChE (E.C. 3.1.1.8)): 41.8 ± 1.28 µM

COc1cccc(-c2ccc3nc4n(c(=O)c3c2)CCCC4)c1 [4h, 2-(3-Methoxyphenyl)-6,7,8,9-tetrahydro-11H-pyrido[2,1-b]quinazolin-11-one]
IC50 (AChE (E.C. 3.1.1.7)): 42.7 ± 1.8 µM
Selectivity (BChE/AChE) (AChE (E.C. 3.1.1.7)): 1
IC50 (BChE (E.C. 3.1.1.8)): 42.3 ± 1.23 µM

O=c1c2cc(-c3ccc(C(F)(F)F)cc3)ccc2nc2n1CCC2 [3c, 7-(4-(Trifluoromethyl)phenyl)-2,3-dihydropyrrolo[2,1-b]quinazolin-9(1H)-one]
IC50 (AChE (E.C. 3.1.1.7)): > 50 µM
IC50 (BChE (E.C. 3.1.1.8)): > 50 µM

CC(=O)c1cccc(-c2ccc3nc4n(c(=O)c3c2)CCC4)c1 [3i, 7-(3-Acetylphenyl)-2,3-dihydropyrrolo[2,1-b]quinazolin-9(1H)-one]
IC50 (AChE (E.C. 3.1.1.7)): 33.2 ± 1.01 µM
IC50 (BChE (E.C. 3.1.1.8)): > 50 µM

COc1ccc(Cl)cc1-c1ccc2nc3n(c(=O)c2c1)CCCC3 [4l, 2-(5-Chloro-2-methoxyphenyl)-6,7,8,9-tetrahydro-11H-pyrido[2,1-b]quinazolin-11-one]
IC50 (AChE (E.C. 3.1.1.7)): > 50 µM
IC50 (BChE (E.C. 3.1.1.8)): 46.6 ± 1.45 µM

Cc1cccc(-c2ccc3nc4n(c(=O)c3c2)CCC4)c1 [3f, 7-(m-Tolyl)-2,3-dihydropyrrolo[2,1-b]quinazolin-9(1H)-one]
IC50 (AChE (E.C. 3.1.1.7)): 28.7 ± 0.69 µM
Selectivity (BChE/AChE) (AChE (E.C. 3.1.1.7)): 0.8
IC50 (BChE (E.C. 3.1.1.8)): 22.8 ± 0.49 µM

O=c1c2cc(-c3ccc(C(F)(F)F)cc3)ccc2nc2n1CCCC2 [4c, 2-(4-(Trifluoromethyl)phenyl)-6,7,8,9-tetrahydro-11H-pyrido[2,1-b]quinazolin-11-one]
IC50 (AChE (E.C. 3.1.1.7)): > 50 µM
IC50 (BChE (E.C. 3.1.1.8)): > 50 µM

O=c1c2cc(-c3cccc(Cl)c3)ccc2nc2n1CCCC2 [4g, 2-(3-Chlorophenyl)-6,7,8,9-tetrahydro-11H-pyrido[2,1-b]quinazolin-11-one]
IC50 (AChE (E.C. 3.1.1.7)): 21.3 ± 0.88 µM
Selectivity (BChE/AChE) (AChE (E.C. 3.1.1.7)): 1.1
IC50 (BChE (E.C. 3.1.1.8)): 22.9 ± 0.76 µM

O=c1c2cc(-c3ccc(F)cc3)ccc2nc2n1CCC2 [3b, 7-(4-Fluorophenyl)-2,3-dihydropyrrolo[2,1-b]quinazolin-9(1H)-one]
IC50 (AChE (E.C. 3.1.1.7)): 34.8 ± 1.21 µM
Selectivity (BChE/AChE) (AChE (E.C. 3.1.1.7)): 0.5
IC50 (BChE (E.C. 3.1.1.8)): 15.5 ± 0.41 µM

O=c1c2cc(-c3cccc4ccccc34)ccc2nc2n1CCC2 [3m, 7-(Naphthalen-1-yl)-2,3-dihydropyrrolo[2,1-b]quinazolin-9(1H)-one]
IC50 (AChE (E.C. 3.1.1.7)): > 50 µM
IC50 (BChE (E.C. 3.1.1.8)): 32 ± 0.72 µM

Cc1cccc(-c2ccc3nc4n(c(=O)c3c2)CCCC4)c1 [4f, 2-(m-Tolyl)-6,7,8,9-tetrahydro-11H-pyrido[2,1-b]quinazolin-11-one]
IC50 (AChE (E.C. 3.1.1.7)): 6.39 ± 0.31 µM
Selectivity (BChE/AChE) (AChE (E.C. 3.1.1.7)): 1.7
IC50 (BChE (E.C. 3.1.1.8)): 10.7 ± 0.64 µM
solubility in common organic solvents [1]: poor solubility

Cc1ccccc1-c1ccc2nc3n(c(=O)c2c1)CCCC3 [4j, 2-(o-Tolyl)-6,7,8,9-tetrahydro-11H-pyrido[2,1-b]quinazolin-11-one]
IC50 (AChE (E.C. 3.1.1.7)): > 50 µM
IC50 (BChE (E.C. 3.1.1.8)): > 50 µM

O=c1c2cc(-c3ccccc3C(F)(F)F)ccc2nc2n1CCCC2 [4n, 2-(2-(Trifluoromethyl)phenyl)-6,7,8,9-tetrahydro-11H-pyrido[2,1-b]quinazolin-11-one]
IC50 (AChE (E.C. 3.1.1.7)): > 50 µM
IC50 (BChE (E.C. 3.1.1.8)): 43.2 ± 1.27 µM

COc1ccc(-c2ccc3nc4n(c(=O)c3c2)CCC4)cc1 [3d, 7-(4-Methoxyphenyl)-2,3-dihydropyrrolo[2,1-b]quinazolin-9(1H)-one]
IC50 (AChE (E.C. 3.1.1.7)): 16.2 ± 0.39 µM
IC50 (BChE (E.C. 3.1.1.8)): > 50 µM

O=c1c2cc(-c3cccc4ccccc34)ccc2nc2n1CCCC2 [4m, 2-(Naphthalen-1-yl)-6,7,8,9-tetrahydro-11H-pyrido[2,1-b]quinazolin-11-one]
IC50 (AChE (E.C. 3.1.1.7)): > 50 µM
IC50 (BChE (E.C. 3.1.1.8)): > 50 µM

Cc1ccccc1-c1ccc2nc3n(c(=O)c2c1)CCC3 [3j, 7-(o-Tolyl)-2,3-dihydropyrrolo[2,1-b]quinazolin-9(1H)-one]
IC50 (AChE (E.C. 3.1.1.7)): > 50 µM
IC50 (BChE (E.C. 3.1.1.8)): 11.1 ± 0.37 µM

CC(C)(C)c1ccc(-c2ccc3nc4n(c(=O)c3c2)CCCC4)cc1 [4e, 2-(4-(tert-Butyl)phenyl)-6,7,8,9-tetrahydro-11H-pyrido[2,1-b]quinazolin-11-one]
IC50 (AChE (E.C. 3.1.1.7)): > 50 µM
IC50 (BChE (E.C. 3.1.1.8)): > 50 µM

O=c1c2cc(-c3ccc(F)c(Cl)c3)ccc2nc2n1CCCC2 [4k, 2-(3-Chloro-4-fluorophenyl)-6,7,8,9-tetrahydro-11H-pyrido[2,1-b]quinazolin-11-one]
IC50 (AChE (E.C. 3.1.1.7)): > 50 µM
IC50 (BChE (E.C. 3.1.1.8)): > 50 µM
